Measurements published in patent US20260327655A1, “SMALL-MOLECULE REGULATED ALTERNATIVE SPLICING” (priority 2023, published 2026).

What was measured:
RS1-10 = experiment: In vivo mouse study of RS1-10 activation (AAV-PHP.eB, bioluminescent imaging); set-up: species or system C57BL/6 mice; conditions: 10 mg/kg single oral gavage
Procedure: C57BL/6 mice underwent tail vein injection of 3.00E+11 vector (depicted in FIG. 11A) genomes/mouse AAV vector composed of a genome containing a cloned human Synapsin promoter driving the expression of a Firefly Luciferase gene. Expression of the luciferase gene was gated by the RS1-10 switch. The AAV vector utilized a brain-penetrant AAV-PHP.eB capsid (FIG. 11A). At approximately 3 weeks after AAV delivery, mice were either dosed with compound vehicle or 10 mg/kg 24 A as a single oral gavage. 6 hours after the oral dosing, mice were intraperitoneally administered D-Luciferin (150 mg/kg), anesthetized, and imaged with a bioluminescent imaging (BLI) system to analyze activation of RS1-10. Light flux from expressed Firefly Luciferase was measured from the whole body of each mouse as radiance and a brightfield image was also taken as an anatomical reference (FIG. 11B). […]
C57BL/6 mice underwent tail vein injection of 3.00E+11 vector genomes/mouse AAV vector composed of a genome containing a cloned human Synapsin promoter driving the expression of a Firefly Luciferase gene. […] Light flux from expressed Firefly Luciferase was measured from the whole body of each mouse as radiance and a brightfield image was also taken as an anatomical reference. […]

RS1-10 and RS1-X1 = experiment: Luminescence of RS1-10 and RS1-X1 in HEK-293T cells; assay type: cell-based, human; conditions: 85 nM, 24 hours, RS1-X1 vs RS1-10, FIG. 8B
Procedure: A plasmid pool that was transfected into HEK-293T cells was treated for 24 hours with splice modulator 24 A at a concentration of 85 nM. RS1-10 was the starting minigene sequence and a variant switch sequence was identified from the switch sequence screen containing a 28 nucleotide intronic deletion compared to the RS1-10 sequence. […]. RS1-10 controlling a firefly luciferase gene or RS1-X1 controlling a firefly luciferase gene were cloned into individual expression plasmids containing a CMV promoter. HEK 293T cells were transfected with either the RS1-10 or RST-XT expression plasmid and were then treated for 24 hours with 85 nM 24 A while incubated in a tissue culture incubator (37° C., 5% CO2). The luminescence was measured as an endpoint analysis by adding 100 μL of a Luciferase substrate, such as Steady-Luc Firefly Luciferase substrate, to each well of the assay plate. The liquid contents of each well was transferred to a 96-well plate, mixed again for 2 min on an orbital shaker, and incubated at room temperature for 5 min. Finally, the luminescent signal from each well was measured with a plate reader (FIG. 8B).

[1] = test system: RS2-3 minigene (Firefly Luciferase), HEK-293T cells; experiment: Luciferase induction assay, RS2-3 with splice modulator compounds in HEK-293T cells; assay type: cell-based; conditions: Homo sapiens, 18 hours, n of 3, read-out: Mean fold-induction of luciferase (relative to vehicle control)
RS1-10, Flp-In-293 cells = experiment: Comparison of RS1-10 Flp-In cell line with constitutive Flp-In cell line; assay type: cell-based; conditions: Homo sapiens, 7 nM, 18 hours, FIG. 9G, read-out: luciferase signal relative to constitutively expressing cell line as 100%
Procedure: Single-copy insertion of RSI-10 sequence and subsequent cell-line generation was performed in Flp-In-293 cells according to manufacturer's protocols. The RS1-10 sequence fused to a Firefly Luciferase gene was cloned into a Flp-In compatible pcDNA5/FRT expression vector with a CMV promoter and BGH polyadenylation signal. The resulting Flp-In cell line carried a single-copy expression cassette of RS1-10 integrated into the genome. Similarly, a cell line constitutively expressing Firefly Luciferase from a single-copy genomic insertion was generated in Flp-In-293 cells. For the constitutive cell line, only the Firefly Luciferase gene was cloned into the pcDNA5/FRT expression vector that was used to generate the single-copy genomic insertion. Both cell lines were cultured in DMEM+10% FBS, collected after trypsinization, and then dispensed into 96-well plates (cell culture-treated). Each well of the plate was seeded with 1.0×10^5 cells in 100 μL culture medium. Subsequently, either DMSO vehicle or 24 A at specified doses was added to the wells of the plate containing the RS1-10 Flp-In 293 cells. Triplicate wells were used for each condition tested in the experiment. Plates were then incubated for 18 hours in a tissue culture incubator (5% CO2, 37 degrees C.). […]

**Q.** What does the source list for `CCN1CC(c2ccc(-c3ccc(-c4ccc5nn(C)cc5c4)cc3O)nn2)C1` [Compound 24A, 2-[6-(1-ethylazetidin-3-yl)pyridazin-3-yl]-5-(2-methyl-2H-indazol-5-yl)phenol]?
**A.** light flux from the heads of mice (bioluminescent imaging) (RS1-10; 6 hours post dose, ~3 weeks after AAV delivery, vs vehicle): Significant increases in light flux; bioluminescent signal after drug washout (RS1-10; 7 days post dose): No significant signal was detected; luminescence (RLU) (RS1-10 and RS1-X1): RS1-X1 produced a higher luminescence (RLU) than RS1-10; fold induction at 0.1 µM ([1]; RS2-3, 100 nM): 14.5; fold induction at 1 µM ([1]; RS2-3, 1,000 nM): 42.6; activity at 0.007 µM (RS1-10, Flp-In-293 cells): ≥ 60%
